# From patent US20170296521A1, “PHARMACEUTICAL COMPOSITION FOR SUPPRESSION OF THROMBOEMBOLISM AFTER STENT PLACEMENT” (priority 2014, published 2017)
# Where a name gives a salt, the structure may show the parent alone.
# System: thrombus formation on stents in arteriovenous shunts
# Assay: rat stent thrombosis model (AV shunt with stents), amount of protein in thrombus
# Format: in vivo
# Conditions: for dose responsiveness of the antithrombotic effect: Example 1, Spearman's correlation coefficient test, P<0.001; for suppression of thrombus formation (rate of inhibition of amount of protein in thrombus): Example 1, FIG. 1A
# Description: Each rat was anesthetized with thiopental sodium (100 mg/mL/kg, i.p.) and placed on a warming mat. 18 minutes after the start of the anesthesia, polyethylene tubes (approximately 34 cm) containing four stents were inserted into the right and left carotid arteries and jugular veins to produce arteriovenous shunts (hereinafter, referred to as “AV shunts”). Blood flow was started in the shunts. 30 minutes after the start of the blood flow, the stents with thrombus attached thereto were taken out, and the amount of protein in the thrombus was measured.
# A 0.5% MC solution (10 mL/kg or 15 mL/kg) was orally administered to a control group. […] The collected thrombus-attached stents were stored at −20° C. until protein quantification. […] Then, the anti-FXa activity in the plasma was measured.
# Aspirin (5 mg/15 ml/kg) or clopidogrel (3 mg/10 ml/kg) was orally administered to each rat fasted overnight. […] A 0.5% MC solution (10 mL/kg or 15 mL/kg) was orally administered to a control group.
# Amount of protein in thrombus: The thrombus-attached stents were placed in 0.9 mL of a 0.1 N NaOH solution containing 2% Na2CO3 and boiled for approximately 30 minutes to solubilize protein.
compound,measurement,setting,value
ticagrelor sulfate,suppression of thrombus formation,"Example 1, FIG. 4, 0.3 mg/kg orally two hours before AV shunting",67%
same,suppression of thrombus formation,"Example 1, FIG. 4, 1 mg/kg orally two hours before AV shunting",74%
same,suppression of thrombus formation,"Example 1, FIG. 4, 3 mg/kg orally two hours before AV shunting",89%
same,dose responsiveness of the antithrombotic effect,,dose-dependent
CC(=O)Oc1ccccc1C(=O)O [aspirin],rate of suppression of thrombus formation,"Example 1, FIG. 2A, 5 mg/kg orally two hours before AV shunting",40%
same,rate of suppression of thrombus formation,"Example 1, FIG. 2A, 10 mg/kg orally two hours before AV shunting",47%
same,significance of the suppression of thrombus formation vs control,"Example 1, FIG. 2A, 5 and 10 mg/kg orally, Dunnett's test",no significant effect
same,suppression of thrombus formation,"Example 1, FIG. 2B, 10 mg/kg orally two hours before AV shunting",63%
same,suppression of thrombus formation,"Example 1, FIG. 2B, 25 mg/kg orally two hours before AV shunting",64%
same,suppression of thrombus formation,"Example 1, FIG. 2B, 50 mg/kg orally two hours before AV shunting",70%
same,suppression of thrombus formation,"Example 1, FIG. 2B, 100 mg/kg orally two hours before AV shunting",83%
same,dose responsiveness of the antithrombotic effect,,dose-dependent
same,rate of suppression of thrombus formation,"Example 2, FIG. 5A, aspirin 5 mg/kg orally alone",42%
"COC(=O)[C@H](c1ccccc1Cl)N1CCc2sccc2C1 [clopidogrel, clopidogrel sulfate]",suppression of thrombus formation,"Example 1, FIG. 3, 1 mg/kg orally two hours before AV shunting",40%
same,suppression of thrombus formation,"Example 1, FIG. 3, 3 mg/kg orally two hours before AV shunting",47%
same,suppression of thrombus formation,"Example 1, FIG. 3, 10 mg/kg orally two hours before AV shunting",84%
same,suppression of thrombus formation,"Example 1, FIG. 3, 30 mg/kg orally two hours before AV shunting",94%
same,dose responsiveness of the antithrombotic effect,,dose-dependent
same,rate of suppression of thrombus formation,"Example 2, FIG. 6A, clopidogrel 3 mg/kg orally alone",21%
"CN1CCc2nc(C(=O)N[C@@H]3C[C@@H](C(=O)N(C)C)CC[C@@H]3NC(=O)C(=O)Nc3ccc(Cl)cn3)sc2C1.Cc1ccc(S(=O)(=O)O)cc1 [edoxaban, N-(5-chloropyridin-2-yl)-N′-[(1S,2R,4S)-4-(dimethylcarbamoyl)-2-(5-methyl-4,5,6,7-tetrahydro[1,3]thiazolo[5,4-c]pyridine-2-carboxamido)cyclohexyl]oxamide]",suppression of thrombus formation (rate of inhibition of amount of protein in thrombus),0.3 mg/kg orally 30 minutes before AV shunting,37%
same,suppression of thrombus formation (rate of inhibition of amount of protein in thrombus),1 mg/kg orally 30 minutes before AV shunting,70%
same,suppression of thrombus formation (rate of inhibition of amount of protein in thrombus),3 mg/kg orally 30 minutes before AV shunting,86%
same,dose responsiveness of the antithrombotic effect,,dose-dependent
same,rate of suppression of thrombus formation,"Example 2, FIG. 5A, edoxaban 0.5 mg/kg orally alone",42%
same,rate of suppression of thrombus formation,"Example 2, FIG. 6A, edoxaban 0.5 mg/kg orally alone",25%
